The NIST ThermoML archive (doi:10.1016/j.jct.2016.08.001)

Key:
[1] = xn = mol fraction of the nth substance listed; conditions: 100 kPa, Liquid; for speed of sound: Frequency=3 MHz, Sing-around technique in a fixed-path interferometer; for mass density: Vibrating tube method
[2] = refractive index (Na D-line) (dimensionless); xn = mol fraction of the nth substance listed; conditions: 100 kPa, Liquid, Standard Abbe refractometry

Nc1ccccc1 [aniline] + CCOC(=O)OCC
Conditions | mass density, [1] [kg/m3] | refractive index, [2] | speed of sound, [1] [m/s]
298.15 K, x2 = 0 | 1017.1 | 1.5826 | 1636.8
298.15 K, x2 = 0.073 | 1014.2 | 1.5649 | 1594.4
298.15 K, x2 = 0.1652 | 1010.2 | 1.5435 | 1543.3
298.15 K, x2 = 0.2537 | 1006.4 | 1.5237 | 1497.7
298.15 K, x2 = 0.3387 | 1002.6 | 1.5053 | 1455.9
298.15 K, x2 = 0.4432 | 998 | 1.4835 | 1407.9
298.15 K, x2 = 0.5468 | 993 | 1.4626 | 1361.3
298.15 K, x2 = 0.6546 | 987.7 | 1.4419 | 1316
298.15 K, x2 = 0.7559 | 982.5 | 1.4235 | 1274.2
298.15 K, x2 = 0.884 | 975.9 | 1.4016 | 1222.6
303.15 K, x2 = 0 | 1012.7 | 1.5793 | 1617.5
303.15 K, x2 = 0.073 | 1009.8 | 1.562 | 1575.1
303.15 K, x2 = 0.1652 | 1005.7 | 1.5408 | 1523.9
303.15 K, x2 = 0.2537 | 1001.8 | 1.5212 | 1478.3
303.15 K, x2 = 0.3387 | 997.9 | 1.5029 | 1436.4
303.15 K, x2 = 0.4432 | 993.2 | 1.4813 | 1388.2
303.15 K, x2 = 0.5468 | 988.1 | 1.4606 | 1341.5
303.15 K, x2 = 0.6546 | 982.6 | 1.4401 | 1296
303.15 K, x2 = 0.7559 | 977.3 | 1.4216 | 1254.1
303.15 K, x2 = 0.884 | 970.5 | 1.3995 | 1202.3
308.15 K, x2 = 0 | 1008.4 | 1.576 | 1598.3
308.15 K, x2 = 0.073 | 1005.4 | 1.559 | 1555.8
308.15 K, x2 = 0.1652 | 1001.2 | 1.538 | 1504.6
308.15 K, x2 = 0.2537 | 997.1 | 1.5187 | 1458.5
308.15 K, x2 = 0.3387 | 993.2 | 1.5006 | 1416.8
308.15 K, x2 = 0.4432 | 988.3 | 1.4791 | 1368.5
308.15 K, x2 = 0.5468 | 983.1 | 1.4586 | 1321.7
308.15 K, x2 = 0.6546 | 977.5 | 1.4381 | 1276
308.15 K, x2 = 0.7559 | 972 | 1.4196 | 1234.1
308.15 K, x2 = 0.884 | 965.1 | 1.3974 | 1182.1
313.15 K, x2 = 0 | 1004.1 | 1.5727 | 1579.1
313.15 K, x2 = 0.073 | 1001 | 1.556 | 1536.6
313.15 K, x2 = 0.1652 | 996.6 | 1.5354 | 1485.3
313.15 K, x2 = 0.2537 | 992.5 | 1.5162 | 1439.1
313.15 K, x2 = 0.3387 | 988.5 | 1.4983 | 1397.4
313.15 K, x2 = 0.4432 | 983.5 | 1.477 | 1349
313.15 K, x2 = 0.5468 | 978.1 | 1.4566 | 1302
313.15 K, x2 = 0.6546 | 972.4 | 1.4362 | 1256.3
313.15 K, x2 = 0.7559 | 966.8 | 1.4176 | 1214.2
313.15 K, x2 = 0.884 | 959.8 | 1.3954 | 1162.1
318.15 K, x2 = 0 | 999.7 | 1.5694 | 1560
318.15 K, x2 = 0.073 | 996.5 | 1.5531 | 1517.6
318.15 K, x2 = 0.1652 | 992.1 | 1.5327 | 1466
318.15 K, x2 = 0.2537 | 987.9 | 1.5137 | 1419.8
318.15 K, x2 = 0.3387 | 983.7 | 1.496 | 1378
318.15 K, x2 = 0.4432 | 978.6 | 1.4749 | 1329.5
318.15 K, x2 = 0.5468 | 973.1 | 1.4545 | 1282.5
318.15 K, x2 = 0.6546 | 967.2 | 1.4343 | 1236.6
318.15 K, x2 = 0.7559 | 961.4 | 1.4156 | 1194.5
318.15 K, x2 = 0.884 | 954.3 | 1.3933 | 1142.2
323.15 K, x2 = 0 | 995.4 | 1.5661 | 1540.9
323.15 K, x2 = 0.073 | 992.1 | 1.5501 | 1498.2
323.15 K, x2 = 0.1652 | 987.6 | 1.5302 | 1446.8
323.15 K, x2 = 0.2537 | 983.2 | 1.5113 | 1400.5
323.15 K, x2 = 0.3387 | 979 | 1.4937 | 1358.7
323.15 K, x2 = 0.4432 | 973.7 | 1.4728 | 1310.1
323.15 K, x2 = 0.5468 | 968.1 | 1.4525 | 1263
323.15 K, x2 = 0.6546 | 962 | 1.4323 | 1217.1
323.15 K, x2 = 0.7559 | 956.1 | 1.4138 | 1174.9
323.15 K, x2 = 0.884 | 948.8 | 1.3913 | 1122.5

O=Cc1ccccc1 [benzaldehyde] + CCOC(=O)OCC
Conditions | mass density, [1] [kg/m3] | refractive index, [2] | speed of sound, [1] [m/s]
298.15 K, x2 = 0 | 1041 | 1.541 | 1457.3
298.15 K, x2 = 0.0933 | 1035 | 1.5244 | 1430.7
298.15 K, x2 = 0.1658 | 1030.2 | 1.5118 | 1409
298.15 K, x2 = 0.267 | 1023.4 | 1.4947 | 1379.1
298.15 K, x2 = 0.36 | 1016.9 | 1.4794 | 1352.5
298.15 K, x2 = 0.4554 | 1010.4 | 1.4638 | 1325.4
298.15 K, x2 = 0.5605 | 1003 | 1.4472 | 1296.3
298.15 K, x2 = 0.6547 | 996.2 | 1.4325 | 1269.8
298.15 K, x2 = 0.7716 | 987.4 | 1.415 | 1238.2
298.15 K, x2 = 0.8473 | 981.4 | 1.4039 | 1217
303.15 K, x2 = 0 | 1036.5 | 1.5383 | 1438.9
303.15 K, x2 = 0.0933 | 1030.6 | 1.522 | 1412.1
303.15 K, x2 = 0.1658 | 1025.7 | 1.5094 | 1389.9
303.15 K, x2 = 0.267 | 1018.7 | 1.4924 | 1359.9
303.15 K, x2 = 0.36 | 1012.2 | 1.4771 | 1333.1
303.15 K, x2 = 0.4554 | 1005.4 | 1.4616 | 1305.8
303.15 K, x2 = 0.5605 | 997.9 | 1.445 | 1276.5
303.15 K, x2 = 0.6547 | 991 | 1.4304 | 1249.9
303.15 K, x2 = 0.7716 | 982.1 | 1.4129 | 1218.1
303.15 K, x2 = 0.8473 | 976 | 1.4017 | 1196.8
308.15 K, x2 = 0 | 1032 | 1.5357 | 1420.6
308.15 K, x2 = 0.0933 | 1026.2 | 1.5195 | 1393.5
308.15 K, x2 = 0.1658 | 1021.2 | 1.5071 | 1371.1
308.15 K, x2 = 0.267 | 1014.1 | 1.4902 | 1340.8
308.15 K, x2 = 0.36 | 1007.4 | 1.475 | 1313.8
308.15 K, x2 = 0.4554 | 1000.6 | 1.4596 | 1286.3
308.15 K, x2 = 0.5605 | 992.9 | 1.443 | 1256.9
308.15 K, x2 = 0.6547 | 985.8 | 1.4283 | 1230.1
308.15 K, x2 = 0.7716 | 976.8 | 1.4108 | 1198.1
308.15 K, x2 = 0.8473 | 970.7 | 1.3995 | 1176.7
313.15 K, x2 = 0 | 1027.5 | 1.5332 | 1402.4
313.15 K, x2 = 0.0933 | 1021.8 | 1.5171 | 1375
313.15 K, x2 = 0.1658 | 1016.7 | 1.5048 | 1352.4
313.15 K, x2 = 0.267 | 1009.5 | 1.488 | 1321.8
313.15 K, x2 = 0.36 | 1002.7 | 1.4728 | 1294.6
313.15 K, x2 = 0.4554 | 995.6 | 1.4574 | 1267
313.15 K, x2 = 0.5605 | 987.9 | 1.4409 | 1237.4
313.15 K, x2 = 0.6547 | 980.7 | 1.4262 | 1210.4
313.15 K, x2 = 0.7716 | 971.6 | 1.4087 | 1178.3
313.15 K, x2 = 0.8473 | 965.4 | 1.3973 | 1156.8
318.15 K, x2 = 0 | 1023 | 1.5307 | 1384.4
318.15 K, x2 = 0.0933 | 1017.3 | 1.515 | 1356.6
318.15 K, x2 = 0.1658 | 1012.2 | 1.5028 | 1333.8
318.15 K, x2 = 0.267 | 1004.9 | 1.486 | 1303.3
318.15 K, x2 = 0.36 | 997.9 | 1.4708 | 1275.8
318.15 K, x2 = 0.4554 | 990.7 | 1.4555 | 1248
318.15 K, x2 = 0.5605 | 982.8 | 1.439 | 1218.3
318.15 K, x2 = 0.6547 | 975.6 | 1.4242 | 1191.5
318.15 K, x2 = 0.7716 | 966.4 | 1.4067 | 1159
318.15 K, x2 = 0.8473 | 960.1 | 1.3952 | 1137.3
323.15 K, x2 = 0 | 1018.4 | 1.5282 | 1366.4
323.15 K, x2 = 0.0933 | 1012.8 | 1.5124 | 1339.3
323.15 K, x2 = 0.1658 | 1007.7 | 1.5003 | 1316.3
323.15 K, x2 = 0.267 | 1000.2 | 1.4836 | 1285.3
323.15 K, x2 = 0.36 | 993.1 | 1.4685 | 1257.7
323.15 K, x2 = 0.4554 | 985.8 | 1.4532 | 1229.8
323.15 K, x2 = 0.5605 | 977.7 | 1.4368 | 1199.9
323.15 K, x2 = 0.6547 | 970.4 | 1.4221 | 1173.1
323.15 K, x2 = 0.7716 | 961.1 | 1.4046 | 1140.6
323.15 K, x2 = 0.8473 | 954.8 | 1.3931 | 1118.8
